Assay results from US20190211020A1 (Agency for Science, Technology and Research, priority 2012, published 2019).

The molecules below were run on eIF4E Ser209 phosphorylation in Hela cells (assay: MNK cell-based assay (AlphaScreen SureFire, eIF4E Ser209 phosphorylation)). Conditions: Homo sapiens; eIF4E Ser209 phosphorylation, Hela cells, 2 hours; read-out: IC50 Hela.
Description: It has been reported that Ser209 of eIF4E is solely phosphorylated by the MNK enzymes. The ability of compounds to inhibit this process in Hela cells was investigated using the AlphaScreen SureFire® assay platform from Perkin Elmer (Waltham, Mass.). eIF4E phosphorylated on Ser209 is recognized by two antibodies, the first which is fused to a streptavidin coated donor bead binds to an epitope away from Ser209, the second which is fused to a protein A conjugated acceptor bead binds to phosphorylated Ser209. The phosphorylation of eIF4E on Ser209 brings the two antibodies into close proximity and when excited by a laser a singlet oxygen is released by the donor bead which excites the acceptor bead resulting in the emission of light. This enables the monitoring of eIF4E Ser209 phosphorylation and its inhibition in a cellular context.
Hela cells were seeded into microtitre plates (30,000 cells per well) in 100 μl of culture medium and incubated at 37° C. for 24 hours. The media was then removed by aspiration and the cells resuspended in 50 μl of serum free medium containing the test compound and incubated at 37° C. for 2 hours. The culture medium was again removed by aspiration and the cells resuspended in lysis buffer (provided in Perkin Elmer SureFire® Assay Kit). After agitation at 350 rpm for 20 minutes at 22° C., 4 μl was transferred to a 384 well OptiPlate™ (Perkin Elmer, Waltham, Mass.). To each well was added 5 μl of acceptor mix; the plate was sealed and agitated gently at 22° C. for 2 hours. Then, in subdued light, 2 μl of donor mix was added to each well, the plate was sealed, wrapped in aluminum foil and agitated gently at 22° C. for 2 hours. Emission was measured using the EnVision® plate reader (Perkin Elmer, Waltham, Mass.).
Inhibition constants (IC50) were determined by plotting AlphaScreen signal versus log compound concentration and fitting with a non-linear regression algorithm using GraphPad Prism (GraphPad Software Inc.).

Structure (SMILES)	IC50 [nM]
CN1CCN(C(=O)c2ccc(-c3ccc4ncc(-c5ccc6[nH]cnc6c5)n4n3)cc2)CC1 [Example 87, (4-(3-(1H-benzo[d]imidazol-5-yl)imidazo[1,2-b]pyridazin-6-yl)phenyl)(4-methylpiperazin-1-yl)methanone]	< 1000
CN1CCN(C(=O)c2ccc(-c3ccc4ncc(-c5ccc(C#N)cc5)n4c3)cc2)CC1 [Example 95, 4-(6-(4-(4-Methylpiperazine-1-carbonyl)phenyl)imidazo[1,2-a]pyridin-3-yl)benzonitrile]	< 1000
N#Cc1ccc(-c2cnc3ccc(-c4ccc(C(=O)N5CCNC(=O)C5)cc4)cn23)cc1 [Example 102, 4-(6-(4-(3-oxopiperazine-1-carbonyl)phenyl)imidazo[1,2-a]pyridin-3-yl)benzonitrile]	< 1000
CN1CCCN(C(=O)c2ccc(-c3ccc4ncc(-c5ccc(C#N)cc5)n4c3)cc2)CC1 [Example 103, 4-(6-(4-(4-methyl-1,4-diazepane-1-carbonyl)phenyl)imidazo[1,2-a]pyridin-3-yl)benzonitrile]	< 1000
N#Cc1ccc(-c2cnc3ccc(-c4ccc(C(=O)N5CCC(N)CC5)cc4)cn23)cc1 [Example 109, 4-(6-(4-(4-aminopiperidine-1-carbonyl)phenyl)imidazo[1,2-a]pyridin-3-yl)benzonitrile]	< 1000
CCC1(N)CCN(C(=O)c2ccc(-c3ccc4ncc(-c5ccc(C#N)cc5)n4c3)cc2)CC1 [Example 113, 4-(6-(4-(4-amino-4-ethylpiperidine-1-carbonyl)phenyl)imidazo [1,2-a]pyridin-3-yl)benzonitrile]	< 1000
N#Cc1ccc(-c2cnc3ccc(-c4ccc(C(=O)NCC(=O)N5CCOCC5)cc4)cn23)cc1 [Example 115, 4-(3-(4-cyanophenyl)imidazo[1,2-a]pyridin-6-yl)-N-(2-morpholino-2-oxoethyl)benzamide]	< 1000
N#Cc1ccc(-c2cnc3ccc(-c4ccc(C(=O)N5CCC6(CCCCN6)CC5)cc4)cn23)cc1 [Example 117, 4-(6-(4-(1,9-diazaspiro[5.5]undecane-9-carbonyl)phenyl)imidazo[1,2-a]pyridin-3-yl)benzonitrile]	< 1000
CN(C(=O)c1ccc(-c2ccc3ncc(-c4ccc(C#N)cc4)n3c2)cc1)c1ccncc1 [Example 122, 4-(3-(4-cyanophenyl)imidazo[1,2-a]pyridin-6-yl)-N-methyl-N-(pyridin-4-yl)benzamide]	< 1000
N#Cc1ccc(-c2cnc3ccc(-c4ccc(C(=O)N5CCC(CN)CC5)cc4)cn23)cc1 [Example 123, 4-(6-(4-(4-(aminomethyl)piperidine-1-carbonyl)phenyl)imidazo[1,2-a]pyridin-3-yl)benzonitrile]	< 1000
N#Cc1ccc(-c2cnc3ccc(-c4ccc(C(=O)N5CCC(CCN)CC5)cc4)cn23)cc1 [Example 124, 4-(6-(4-(4-(2-aminoethyl)piperidine-1-carbonyl)phenyl)imidazo[1,2-a]pyridin-3-yl)benzonitrile]	< 1000

The next lines start with the values.

IC50 [nM]	Structure (SMILES)
< 1000	CN1CCN(C2CCN(C(=O)c3ccc(-c4ccc5ncc(-c6ccc7c(c6)CC(=O)N7)n5n4)cc3)CC2)CC1 [Example 89, 5-(6-(4-(4-(4-methylpiperazin-1-yl)piperidine-1-carbonyl)phenyl)imidazo[1,2-b]pyridazin-3-yl)indolin-2-one]
< 1000	O=C1Cc2cc(-c3cnc4ccc(-c5ccc(C(=O)N6CCC(N7CCOCC7)CC6)cc5)nn34)ccc2N1 [Example 94, 5-(6-(4-(4-morpholinopiperidine-1-carbonyl)phenyl)imidazo[1,2-b]pyridazin-3-yl)indolin-2-one]
< 1000	N#Cc1ccc(-c2cnc3ccc(-c4ccc(C(=O)N5CCCOCC5)cc4)cn23)cc1 [Example 97, 4-(6-(4-(1,4-oxazepane-4-carbonyl)phenyl)imidazo [1,2-a]pyridin-3-yl)benzonitrile]
< 1000	CCN1CCN(C(=O)c2ccc(-c3ccc4ncc(-c5ccc(C#N)cc5)n4c3)cc2)CC1 [Example 98, 4-(6-(4-(4-ethylpiperazine-1-carbonyl)phenyl)imidazo [1,2-a]pyridin-3-yl)benzonitrile]
< 1000	CC(=O)NC1(C)CCN(C(=O)c2ccc(-c3ccc4ncc(-c5ccc(C#N)cc5)n4c3)cc2)CC1 [Example 99, N-(1-(4-(3-(4-cyanophenyl)imidazo[1,2-a]pyridin-6-yl)benzoyl)-4-methylpiperidin-4-yl)acetamide]
< 1000	CCN(CC)C1(C)CCN(C(=O)c2ccc(-c3ccc4ncc(-c5ccc(C#N)cc5)n4c3)cc2)CC1 [Example 100, 4-(6-(4-(4-(diethylamino)-4-methylpiperidine-1-carbonyl)phenyl)imidazo[1,2-a]pyridin-3-yl)benzonitrile]
< 1000	CN(CC(=O)N1CCOCC1)C(=O)c1ccc(-c2ccc3ncc(-c4ccc(C#N)cc4)n3c2)cc1 [Example 101, 4-(3-(4-cyanophenyl)imidazo[1,2-a]pyridin-6-yl)-N-methyl-N-(2-morpholino-2-oxoethyl)benzamide]
< 1000	CN1CCC(C2CCN(C(=O)c3ccc(-c4ccc5ncc(-c6ccc(C#N)cc6)n5c4)cc3)CC2)CC1 [Example 105, 4-(6-(4-(1′-methyl-4,4′-bipiperidine-1-carbonyl)phenyl)imidazo[1,2-a]pyridin-3-yl)benzonitrile]
< 1000	CC1(O)CCN(C(=O)c2ccc(-c3ccc4ncc(-c5ccc(C#N)cc5)n4c3)cc2)CC1 [Example 106, 4-(6-(4-(4-hydroxy-4-methylpiperidine-1-carbonyl)phenyl)imidazo[1,2-a]pyridin-3-yl)benzonitrile]
< 1000	N#Cc1ccc(-c2cnc3ccc(-c4ccc(C(=O)N5CCCNCC5)cc4)cn23)cc1 [Example 107, 4-(6-(4-(1,4-diazepane-1-carbonyl)phenyl)imidazo [1,2-a]pyridin-3-yl)benzonitrile]
< 1000	CS(=O)(=O)NC1CCN(C(=O)c2ccc(-c3ccc4ncc(-c5ccc(C#N)cc5)n4c3)cc2)CC1 [Example 111, N-(1-(4-(3-(4-cyanophenyl)imidazo[1,2-a]pyridin-6-yl)benzoyl)piperidin-4-yl)methanesulfonamide]
< 1000	CN(C)C1CCN(C(=O)c2ccc(-c3ccc4ncc(-c5ccc(C#N)cc5)n4c3)cc2)CC1 [Example 112, 4-(6-(4-(4-(dimethylamino)piperidine-1-carbonyl)phenyl)imidazo[1,2-a]pyridin-3-yl)benzonitrile]
< 1000	N#Cc1ccc(-c2cnc3ccc(-c4ccc(C(=O)NCCN5CCOCC5)cc4)cn23)cc1 [Example 116, 4-(3-(4-cyanophenyl)imidazo[1,2-a]pyridin-6-yl)-N-(2-morpholinoethyl)benzamide]
< 1000	CC(=O)N1CCCCC12CCN(C(=O)c1ccc(-c3ccc4ncc(-c5ccc(C#N)cc5)n4c3)cc1)CC2 [Example 118, 4-(6-(4-(1-acetyl-1,9-diazaspiro[5.5]undecane-9-carbonyl)phenyl)imidazo[1,2-a]pyridin-3-yl)benzonitrile]
< 1000	CN1CCCCC12CCN(C(=O)c1ccc(-c3ccc4ncc(-c5ccc(C#N)cc5)n4c3)cc1)CC2 [Example 119, 4-(6-(4-(1-methyl-1,9-diazaspiro [5.5]undecane-9-carbonyl)phenyl)imidazo[1,2-a]pyridin-3-yl)benzonitrile]
